Laboratory results: PubChem BioAssay (NCI)
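Assay format: 96-well plates, 48-hour exposure. The concentration for 50% growth inhibition is given as GI50. Definition used: TGI = concentration required for complete inhibition of growth.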

Key:
Assay in all cases: NCI anticancer screen, dose series, 48 h
[1] = system: 786-0 renal
[2] = system: A498 renal
[3] = system: A549 NSCLC
[4] = system: ACHN renal
[5] = system: BT-549 breast
[6] = system: CAKI-1 renal
[7] = system: CCRF-CEM leukemia
[8] = system: COLO 205 colon
[9] = system: DU-145 prostate
[10] = system: HCC-2998 colon
[11] = system: HCT-116 colon
[12] = system: HCT-15 colon
[13] = system: HL-60(TB) leukemia
[14] = system: HOP-62 NSCLC
[15] = system: HOP-92 NSCLC
[16] = system: HS 578T breast
[17] = system: HT29 colon
[18] = system: IGROV1 ovarian
[19] = system: K-562 leukemia
[20] = system: KM12 colon
[21] = system: LOX IMVI melanoma
[22] = system: M14 melanoma
[23] = system: MALME-3M melanoma
[24] = system: MCF7 breast
[25] = system: MDA-MB-231 breast
[26] = system: MDA-MB-435
[27] = system: MOLT-4 leukemia
[28] = system: NCI-H226 lung
[29] = system: NCI-H23 lung
[30] = system: NCI-H460 lung
[31] = system: NCI-H522 lung
[32] = system: NCI/ADR-RES ovarian
[33] = system: OVCAR-3 ovarian
[34] = system: OVCAR-4 ovarian
[35] = system: OVCAR-5 ovarian
[36] = system: OVCAR-8 ovarian
[37] = system: PC-3 prostate
[38] = system: RPMI-8226 leukemia
[39] = system: RXF 393 renal
[40] = system: SF-268 CNS
[41] = system: SF-295 CNS
[42] = system: SF-539 CNS
[43] = system: SK-MEL-2 melanoma
[44] = system: SK-MEL-28 melanoma
[45] = system: SK-MEL-5 melanoma
[46] = system: SK-OV-3 ovarian
[47] = system: SN12C renal
[48] = system: SNB-19 CNS
[49] = system: SNB-75 CNS
[50] = system: SR leukemia
[51] = system: SW-620 colon
[52] = system: T-47D breast
[53] = system: TK-10 renal
[54] = system: U251 CNS
[55] = system: UACC-257 melanoma
[56] = system: UACC-62 melanoma
[57] = system: UO-31 renal

`CC(C)c1cc(-c2n[nH]c(=O)n2-c2ccc3c(ccn3C)c2)c(O)cc1O` showed a GI50 [1] of 0.0686 µM, a TGI [1] of 45.4 µM and a GI50 [2] of 0.0534 µM. It also gave a TGI [2] of 14 µM, a GI50 [3] of under 0.0204 µM and a TGI [3] of over 71.3 µM. For the same compound, the GI50 [4] was under 0.0209 µM, the TGI [4] was over 43.1 µM and the GI50 [5] was 1.87 µM. For the same compound, the TGI [5] was 44.3 µM, the GI50 [6] was 0.0479 µM and the TGI [6] was over 71.5 µM. For the same compound, the GI50 [7] was under 0.0174 µM, the TGI [7] was over 40.5 µM and the GI50 [8] was 0.0259 µM. For the same compound, the TGI [8] was 0.981 µM, the GI50 [9] was under 0.0237 µM and the TGI [9] was 23 µM. The GI50 [10] was 0.0256 µM, the TGI [10] was 2.77 µM and the GI50 [11] was under 0.0141 µM. For the same compound, the TGI [11] was 13.5 µM, the GI50 [12] was under 0.02 µM and the TGI [12] was over 47.7 µM. It also gave a GI50 [13] of under 0.01 µM, a TGI [13] of 21.8 µM and a GI50 [14] of 0.0794 µM. For the same compound, the TGI [14] was 31.8 µM, the GI50 [15] was under 0.0169 µM and the TGI [15] was 0.0484 µM. The GI50 [16] was 0.682 µM, the TGI [16] was 90.1 µM and the GI50 [17] was 0.0423 µM. For the same compound, the TGI [17] was 12.5 µM, the GI50 [18] was under 0.0225 µM and the TGI [18] was 24.8 µM. The GI50 [19] was under 0.0123 µM, the TGI [19] was over 100 µM and the GI50 [20] was 0.0221 µM. It also gave a TGI [20] of 0.062 µM, a GI50 [21] of 0.0238 µM and a TGI [21] of 0.0661 µM. For the same compound, the GI50 [22] was under 0.0198 µM, the TGI [22] was 21.1 µM and the GI50 [23] was under 0.0167 µM. It also gave a TGI [23] of under 0.031 µM, a GI50 [24] of under 0.0161 µM and a TGI [24] of 17.3 µM. For the same compound, the GI50 [25] was under 0.023 µM, the TGI [25] was 7.52 µM and the GI50 [26] was under 0.0191 µM. The TGI [26] was 15.6 µM, the GI50 [27] was under 0.0177 µM and the GI50 [28] was 0.286 µM. It also gave a TGI [28] of 60.1 µM, a GI50 [29] of 0.0247 µM and a TGI [29] of 26.7 µM. It also gave a GI50 [30] of under 0.0157 µM, a TGI [30] of 13.9 µM and a GI50 [31] of under 0.0205 µM. It also gave a TGI [31] of 17.1 µM, a GI50 [32] of 0.0409 µM and a TGI [32] of over 100 µM. It also gave a GI50 [33] of under 0.0237 µM, a TGI [33] of 19.4 µM and a GI50 [34] of 13 µM. It also gave a TGI [34] of over 86.1 µM, a GI50 [35] of 0.147 µM and a TGI [35] of over 48.4 µM. It also gave a GI50 [36] of under 0.0232 µM, a TGI [36] of over 83.7 µM and a GI50 [37] of under 0.0224 µM. For the same compound, the TGI [37] was 49.6 µM, the GI50 [38] was under 0.0218 µM and the TGI [38] was 31.3 µM. The GI50 [39] was under 0.0304 µM, the TGI [39] was 21.5 µM and the GI50 [40] was 9.69 µM. For the same compound, the TGI [40] was 38.9 µM, the GI50 [41] was under 0.0215 µM and the TGI [41] was 0.796 µM. It also gave a GI50 [42] of under 0.0279 µM, a TGI [42] of 21.8 µM and a TGI [43] of 25.7 µM. It also gave a GI50 [44] of under 0.0215 µM, a TGI [44] of 17.2 µM and a GI50 [45] of under 0.0207 µM. The TGI [45] was 13.9 µM, the GI50 [46] was under 0.0132 µM and the TGI [46] was over 43.5 µM. For the same compound, the GI50 [47] was under 0.0222 µM, the TGI [47] was over 52.2 µM and the GI50 [48] was under 0.0236 µM. For the same compound, the TGI [48] was over 48.5 µM, the GI50 [49] was 1.58 µM and the TGI [49] was 97.7 µM. The GI50 [50] was under 0.01 µM, the TGI [50] was 35 µM and the GI50 [51] was under 0.013 µM. It also gave a TGI [51] of 24.5 µM, a GI50 [52] of under 0.0287 µM and a TGI [52] of 34.5 µM. It also gave a GI50 [53] of under 0.0271 µM, a TGI [53] of 37 µM and a GI50 [54] of under 0.0257 µM. It also gave a TGI [54] of 18 µM, a GI50 [55] of under 0.0195 µM and a TGI [55] of 30.6 µM. It also gave a GI50 [56] of under 0.0173 µM, a TGI [56] of 0.224 µM and a GI50 [57] of under 0.0218 µM. For the same compound, the TGI [57] was over 65.2 µM.

Compound `COc1ccc(/C=C2\CCCC3=C2N=C2SC(C)=NN2C3c2ccc(OC)c(OC)c2)cc1OC` (configuration not stated) has a GI50 [1] of 11 µM, a TGI [1] of over 100 µM and a GI50 [2] of 2 µM. It also gave a TGI [2] of 86.3 µM, a GI50 [3] of 31.8 µM and a TGI [3] of over 100 µM. For the same compound, the GI50 [4] was 4.2 µM, the TGI [4] was 33.3 µM and the GI50 [5] was 7.37 µM. For the same compound, the TGI [5] was over 100 µM, the GI50 [6] was 4.82 µM and the TGI [6] was over 100 µM. It also gave a GI50 [7] of 2.91 µM, a TGI [7] of over 100 µM and a GI50 [8] of 5.24 µM. For the same compound, the TGI [8] was over 100 µM, the GI50 [9] was 10.7 µM and the TGI [9] was over 100 µM. It also gave a GI50 [10] of over 100 µM, a TGI [10] of over 100 µM and a GI50 [11] of 3.26 µM. The TGI [11] was 14.3 µM, the GI50 [12] was 3.49 µM and the TGI [12] was 19.4 µM. For the same compound, the GI50 [13] was 3.97 µM, the TGI [13] was 36 µM and the GI50 [14] was 19.8 µM. It also gave a TGI [14] of over 100 µM, a GI50 [15] of 10.6 µM and a TGI [15] of 52 µM. It also gave a GI50 [16] of 30.4 µM, a TGI [16] of over 100 µM and a GI50 [17] of 11.1 µM. For the same compound, the TGI [17] was 90.1 µM, the GI50 [18] was 18.4 µM and the TGI [18] was 93.8 µM. The GI50 [19] was 3.98 µM, the TGI [19] was over 100 µM and the GI50 [20] was 8.41 µM. The TGI [20] was over 100 µM, the GI50 [21] was 4.52 µM and the TGI [21] was 35.2 µM. For the same compound, the GI50 [22] was 5.73 µM, the TGI [22] was over 100 µM and the GI50 [23] was 15.1 µM. The TGI [23] was 56.6 µM, the GI50 [24] was 3.04 µM and the TGI [24] was over 100 µM. It also gave a GI50 [25] of 25.1 µM, a TGI [25] of over 100 µM and a GI50 [26] of 3.27 µM. For the same compound, the TGI [26] was 69.3 µM, the GI50 [27] was 13.8 µM and the TGI [27] was over 100 µM. For the same compound, the GI50 [28] was 13.3 µM, the TGI [28] was 79.4 µM and the GI50 [29] was 8.2 µM. For the same compound, the TGI [29] was over 100 µM, the GI50 [30] was 23.8 µM and the TGI [30] was over 100 µM. The GI50 [31] was 10.8 µM, the TGI [31] was 57.8 µM and the GI50 [32] was 4.71 µM. For the same compound, the TGI [32] was over 100 µM, the GI50 [33] was 4.62 µM and the TGI [33] was 74.9 µM. The GI50 [35] was 36 µM, the TGI [35] was over 100 µM and the GI50 [36] was 6.31 µM. It also gave a TGI [36] of over 100 µM, a GI50 [37] of 25.8 µM and a TGI [37] of over 100 µM. It also gave a GI50 [39] of 3.88 µM, a TGI [39] of 18.2 µM and a GI50 [40] of 18.2 µM. It also gave a TGI [40] of over 100 µM, a GI50 [41] of 14.8 µM and a TGI [41] of over 100 µM. The GI50 [42] was 8.15 µM, the TGI [42] was over 100 µM and the GI50 [43] was 22.2 µM. The TGI [43] was 97.1 µM, the GI50 [44] was 8.92 µM and the TGI [44] was over 100 µM. The GI50 [45] was 6.27 µM, the TGI [45] was over 100 µM and the GI50 [46] was 62.5 µM. For the same compound, the TGI [46] was over 100 µM, the GI50 [47] was 14 µM and the TGI [47] was over 100 µM. For the same compound, the GI50 [48] was 39.2 µM, the TGI [48] was over 100 µM and the GI50 [49] was 13.7 µM. The TGI [49] was 64.2 µM, the GI50 [50] was 3.66 µM and the TGI [50] was over 100 µM. For the same compound, the GI50 [51] was 6.79 µM, the TGI [51] was 53.8 µM and the GI50 [52] was 4.57 µM. It also gave a TGI [52] of over 100 µM, a GI50 [53] of 5.99 µM and a TGI [53] of 51.2 µM. For the same compound, the GI50 [54] was 26.2 µM, the TGI [54] was over 100 µM and the GI50 [55] was 9.17 µM. It also gave a TGI [55] of over 100 µM, a GI50 [56] of 4.68 µM and a TGI [56] of 45.6 µM. It also gave a GI50 [57] of 5.99 µM and a TGI [57] of 43.9 µM.
